Experimental data from patent US20080171718A1, “Methods and Compositions for Treating Cancer Using BCL-2 Antisense Oligomers, Tyrosine Kinase Inhibitors, and Chemotherapeutic Agents” (priority 2006, published 2008).
Entries after “also recorded” stand apart in the source; their conditions may differ.

Tested on: A549 human lung cancer model
Assay: Tumor growth delay in A549 human lung cancer model in SCID mice
Type: in vivo
Conditions: for effect of the tyrosine kinase inhibitor in triplet therapy with Bcl-2 antisense and cytotoxic chemotherapeutic (comparison, interaction): A549 model, triplet with Genasense and Taxol/Abraxane
Experimental: Genasense® (G3139 by Genta, Bcl-2 inhibitor, also referred to in the Figures as “OBL”), Abraxane® (by Abraxis, paclitaxel), and Taxol® (by Bristol Myers Squibb, paclitaxel) were submitted for evaluation in combination with tyrosine kinase inhibitors against an A549 human lung cancer model in severe combined immune deficient (SCID) mice. Ten treatment groups having 10 mice per group were analyzed for tumor growth delay. G3139, Abraxane, and Taxol were administered via intravenous (IV) injection, and tyrosine kinase inhibitors were administered via oral gavage (PO).
The mice were injected with 100 μl tumor cells subcutaneously (SC). […] On the 15th day, treatment cycles of 5 days on and 2 days off began for a series of 3 cycles. During treatment, the mice were weighed twice daily. Tumor volume estimation (mm^3) was made in accordance with the formula (a^2×b/2), where “a” is the smallest diameter and “b” is the largest diameter. All procedures were completed in accordance with established animal care protocols.
Subconfluent cells were harvested by using 0.23% trypsin-EDTA (HyClone, Logan, Utah) and were counted using the trypan blue assay technique. Cells (99% viability) were re-suspended at the concentration of 10×10^6 cells/100 μl of sterile saline.
G3139 was prepared fresh each treatment day from a refrigerated stock solution of 30 mg/ml using sterile saline as the vehicle; while tyrosine kinase inhibitors in capsule form were brought up to the desired concentration using 10% DMSO and 90% sterile saline as the vehicle. Taxol (Infusion Solutions, Tucson, Az.) was prepared fresh each treatment day from a refrigerated stock solution of 6 mg/ml in Cremaphor EL/EtOH using sterile saline as the vehicle. Abraxane was prepared from a frozen stock of 5 mg/ml with the diluent of sterile saline. G3139 (20 mg/kg) was administered twice during each 5-day treatment cycle, on day 3 and on day 5. […] G3139 was administered at a volume of 0.1 ml using a 27 gauge needle (Becton Dickinson). Abraxane and Taxol were administered at a volume of 0.2 ml using a 27 gauge needle. […]

SMILES | effect of the tyrosine kinase inhibitor in triplet therapy with Bcl-2 antisense and cytotoxic chemotherapeutic (comparison, interaction) | tumor growth / tumor growth inhibition compared to the negative control (tumor volume versus days post implantation) (FIG. 1-3, single agent, SC A549 tumors, 3 cycles of 5 days on/2 days off from day 15, Taxol/Abraxane 13.4 mg/kg IV day 1, Gleevec 100 mg/kg, Sutent/Nexavar 40 mg/kg PO daily)
C#Cc1cccc(Nc2ncnc3cc(OCCOC)c(OCCOC)cc23)c1 [Tarceva, erlotinib] | does not significantly enhance the efficacy | 
CNC(=O)c1cc(Oc2ccc(NC(=O)Nc3ccc(Cl)c(C(F)(F)F)c3)cc2)ccn1 [Nexavar, sorafenib] | comparable to Sutent in the triplet therapy and more effective than Gleevec; also recorded: unexpectedly enhanced interaction | minor and substantially similar tumor growth inhibition
